Calls of active or inactive are those of the source. The calls are words filed in the database; no cut-off is given here.
Tests used:
[1] = molecular target: T1, Free fatty acid receptor 1 (Homo sapiens, UniProt O14842); assay: Agonist activity at human FFA1 receptor expressed in CHO cells assessed as increase in intracellular calcium flux by Fluo 4AM dye-based FLIPR assay; format: functional, cell-based
[2] = molecular target: T1, Free fatty acid receptor 1; assay: Agonist activity at human FFA1 receptor expressed in CHO cells assessed as increase in intracellular calcium flux at 10 uM by Fluo 4AM dye-based FLIPR assay relative to TAK-875; format: functional, cell-based
[3] = Octanol/phosphate buffer distribution coefficient, log D of the compound at 100 uM at pH 7.4 after 24 hrs by shake flask method; format: physicochemical
[4] = tested on: HepG2; assay: Apoptotic cytotoxicity in human HepG2 cells assessed as caspase-3/7 activity at 30 uM after 24 hrs by caspase-glo-3/7 assay relative to staurosporine; format: cell-based; conditions: hepg2, 24 h
[5] = Drug level in Sprague-Dawley rat plasma treated with 2-((4-((2'-chloro-[1,1'-biphenyl]-3-yl)methoxy)phenyl)sulfonyl)acetic acid at 10 mg/kg, po measured up to 24 hrs post dose by LC-PDA-MS/MS analysis; format: ADME, organism-based; conditions: in vivo
[6] = Clearance in fasted Sprague-Dawley rat at 10 mg/kg, po administered as single dose measured up to 24 hrs post dose by LC-PDA-MS/MS analysis; format: ADME, organism-based; conditions: in vivo
[7] = Cmax in fasted Sprague-Dawley rat at 10 mg/kg, po administered as single dose measured up to 24 hrs post dose by LC-PDA-MS/MS analysis; format: ADME, organism-based; set-up: dose 10 mg/kg, route oral; conditions: in vivo
[8] = AUC (0 to 24 hrs) in fasted Sprague-Dawley rat at 10 mg/kg, po administered as single dose measured up to 24 hrs post dose by LC-PDA-MS/MS analysis; format: ADME, organism-based; set-up: time < 24 hr, dose 10 mg/kg, route oral; conditions: in vivo
[9] = Half life in fasted Sprague-Dawley rat at 10 mg/kg, po administered as single dose measured up to 24 hrs post dose by LC-PDA-MS/MS analysis; format: ADME, organism-based; conditions: in vivo
[10] = Drug metabolism in Sprague-Dawley rat plasma assessed as beta-oxidation metabolite formation at 10 mg/kg, po measured up to 24 hrs post dose by LC-PDA-MS/MS analysis; format: ADME, organism-based; conditions: in vivo
[11] = Drug metabolism in Sprague-Dawley rat plasma assessed as cytochrome P450-mediated 2'-chlorobiphenyl-3-carboxylic acid formation at 10 mg/kg, po measured up to 24 hrs post dose by LC-PDA-MS/MS analysis; format: ADME, organism-based; conditions: in vivo
[12] = Drug metabolism in Sprague-Dawley rat plasma assessed as 2-(2-(4-((2'-chlorobiphenyl-3-yl)methoxy)phenylsulfonyl)acetamido)ethanesulfonic acid formation at 10 mg/kg, po measured up to 24 hrs post dose by LC-PDA-MS/MS analysis; format: ADME, organism-based; conditions: in vivo
[13] = Drug metabolism in Sprague-Dawley rat plasma assessed as (2S,3R,4S,5S,6R)-3,4,5-trihydroxy-6-(hydroxymethyl)tetrahydro-2H-pyran-2-yl 2-(4-((2'-chlorobiphenyl-3-yl)methoxy)phenylsulfonyl)acetate formation at 10 mg/kg, po measured up to 24 hrs post dose by LC-PDA-MS/MS analysis; format: ADME, organism-based; conditions: in vivo
[14] = tested on: Rattus norvegicus; assay: Antidiabetic activity in po dosed Sprague-Dawley rat assessed as reduction in plasma glucose excursion administered as single dose followed by subsequent glucose challenge at 60 mins post administration measured up to 120 mins post dose by OGTT method; format: functional, organism-based
[15] = tested on: Rattus norvegicus; assay: Antidiabetic activity in po dosed Sprague-Dawley rat assessed as increase in insulin secretion administered as single dose followed by subsequent glucose challenge at 60 mins post administration measured up to 120 mins post dose by ELISA; format: functional, organism-based
[16] = tested on: Rattus norvegicus; assay: Antidiabetic activity in po dosed Sprague-Dawley rat assessed as reduction in blood glucose AUC (0 to 120 mins) administered as single dose followed by subsequent glucose challenge at 60 mins post administration by OGTT method; format: functional
[17] = tested on: Rattus norvegicus; assay: Antidiabetic activity in po dosed Sprague-Dawley rat assessed as increase in blood insulin AUC (0 to 120 mins) administered as single dose followed by subsequent glucose challenge at 60 mins post administration by ELISA method; format: functional
[18] = tested on: Mus musculus; assay: Antihyperglycemic activity in high fat diet fed/streptozotocin-induced type 2 diabetic C57BL/6 mouse model assessed as reduction in plasma glucose AUC (0 to 120 mins) at 20 mg/kg, po administered as single dose followed by subsequent glucose challenge at 60 mins post administration by OGTT method; format: functional, organism-based
[19] = tested on: Rattus norvegicus; assay: Hypoglycemic effect in fasting Sprague-Dawley rat at 30 mg/kg, po measured up to 180 mins post dose; format: ADME, organism-based; conditions: in vivo, 3 h
[20] = tested on: Mus musculus; assay: Hepatotoxicity in ICR mouse assessed as serum ALT level at 30 mg/kg, dosed daily via oral gavage for 30 days (reference value: 34.7 +/- 5.6 IU/L); format: toxicity, organism-based; conditions: in vivo, 720 h
[21] = tested on: Mus musculus; assay: Hepatotoxicity in ICR mouse assessed as serum AST level at 30 mg/kg, dosed daily via oral gavage for 30 days (reference value: 135.6 +/- 15.2 IU/L); format: toxicity, organism-based; conditions: in vivo, 720 h
[22] = tested on: Mus musculus; assay: Hepatotoxicity in ICR mouse assessed as serum TBIL level at 30 mg/kg, dosed daily via oral gavage for 30 days (reference value: 4.3 +/- 1.3 IU/L); format: toxicity, organism-based; conditions: in vivo, 720 h
[23] = tested on: Mus musculus; assay: Renal toxicity in ICR mouse assessed as BUN level at 30 mg/kg, dosed daily via oral gavage for 30 days (reference value: 7.4 +/- 1.6 mmol/L); format: organism-based; conditions: in vivo, 720 h
[24] = tested on: Mus musculus; assay: Renal toxicity in ICR mouse assessed as serum creatinine level at 30 mg/kg, dosed daily via oral gavage for 30 days (reference value: 40.9 +/- 2.6 umol/L); format: organism-based; conditions: in vivo, 720 h

T1 sequence (O14842 whole entry): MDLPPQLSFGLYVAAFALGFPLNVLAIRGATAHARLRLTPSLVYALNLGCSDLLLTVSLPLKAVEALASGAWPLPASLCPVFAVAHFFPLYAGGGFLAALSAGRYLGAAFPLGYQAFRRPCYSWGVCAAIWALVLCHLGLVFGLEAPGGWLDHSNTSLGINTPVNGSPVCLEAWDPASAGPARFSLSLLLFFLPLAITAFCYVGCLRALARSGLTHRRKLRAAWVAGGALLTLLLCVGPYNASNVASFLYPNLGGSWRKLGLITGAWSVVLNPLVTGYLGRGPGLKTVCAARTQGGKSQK

EC50 [1] [µM]	Efficacy [2] [%]	logD at 24 h, 100 µM [3]	SMILES	Activity [4] [%]	other results
0.0513	105	3.12	CCOc1ccc(-c2cccc(COc3ccc(S(=O)(=O)CC(=O)O)cc3)c2)c(Cl)c1	26.9	–
0.288	94	2.13	O=C(O)CS(=O)(=O)c1ccc(OCc2cccc(-c3ccccc3)c2)cc1	-1.9	–
–	–	–	O=C(CS(=O)(=O)c1ccc(OCc2cccc(-c3ccccc3Cl)c2)cc1)NCCS(=O)(=O)O	–	Drug metabolism [5]: Metabolite_Detected
–	–	–	O=C(O)c1cccc(-c2ccccc2Cl)c1	–	Drug metabolism [5]: Metabolite_Detected
0.0794	98	3.46	Cc1cc(OCC2CC2)cc(C)c1-c1cccc(COc2ccc(S(=O)(=O)CC(=O)O)cc2)c1	26.3	–
0.0155	116	3.75	Cc1cc(OCCCS(C)(=O)=O)cc(C)c1-c1cccc(COc2ccc(CCC(=O)O)cc2)c1	46.8	CL/F [6]: 7.07 L/h/kg; Cmax [7]: 0.517 µg/mL; AUC(0-t) at 24 h [8]: 1.02 µg·h/mL; half-life [9]: 1.09 h
0.0363	112	3.05	Cc1ccc(-c2cccc(COc3ccc(S(=O)(=O)CC(=O)O)cc3)c2)c(Cl)c1	17.6	–
0.0575	106	2.45	COc1cc(C)c(-c2cccc(COc3ccc(S(=O)(=O)CC(=O)O)cc3)c2)c(C)c1	-2.4	–
0.0661	103	2.49	Cc1cccc(C)c1-c1cccc(COc2ccc(S(=O)(=O)CC(=O)O)cc2)c1	-1.5	–
0.0288	115	2.47	O=C(O)CS(=O)(=O)c1ccc(OCc2cccc(-c3ccccc3Cl)c2)cc1	-1.6	CL/F [6]: 0.154 L/h/kg; Cmax [7]: 2.56 µg/mL; AUC(0-t) at 24 h [8]: 30.2 µg·h/mL; half-life [9]: 5.57 h; Drug metabolism [10]: Metabolite_Detected; Drug metabolism [11]: Metabolite_Detected; Drug metabolism [12]: Metabolite_Detected; Drug metabolism [13]: Metabolite_Detected; Activity [14]: Dose-dependent effect; Activity [15]: Dose-dependent effect; MEC [16]: 3 mg/kg; MEC [17]: 3 mg/kg; Activity [18]: Active; Activity [19]: Non-Toxic; Activity [20]: 35.4 IU/L; Activity [21]: 128.2 IU/L; Activity [22]: 4.1 IU/L; Activity [23]: 7.9 mmol/L; Activity [24]: 41.4 µmol/L
–	–	–	O=C(CS(=O)(=O)c1ccc(OCc2cccc(-c3ccccc3Cl)c2)cc1)O[C@@H]1O[C@H](CO)[C@@H](O)[C@H](O)[C@H]1O	–	Drug metabolism [5]: Metabolite_Detected
0.0692	104	3.58	CCCOc1cc(C)c(-c2cccc(COc3ccc(S(=O)(=O)CC(=O)O)cc3)c2)c(C)c1	29.5	–
0.0525	108	2.95	O=C(O)CS(=O)(=O)c1ccc(OCc2cccc(-c3ccccc3C(F)(F)F)c2)cc1	12.5	–
0.0631	107	2.86	CCOc1cc(C)c(-c2cccc(COc3ccc(S(=O)(=O)CC(=O)O)cc3)c2)c(C)c1	6.7	–
0.0468	113	2.35	Cc1ccccc1-c1cccc(COc2ccc(S(=O)(=O)CC(=O)O)cc2)c1	-2.7	–
0.0955	96	3.94	Cc1cc(OCC(C)C)cc(C)c1-c1cccc(COc2ccc(S(=O)(=O)CC(=O)O)cc2)c1	–	–

Reference: ChEMBL document CHEMBL4190257, “Discovery of phenylsulfonyl acetic acid derivatives with improved efficacy and safety as potent free fatty acid receptor 1 agonists for the treatment of type 2 diabetes” (Eur J Med Chem, 2017)
